Data: patent EP1724268A1, “COMPOUND HAVING TGF-BETA INHIBITORY ACTIVITY AND PHARMACEUTICAL COMPOSITION CONTAINING SAME” (KIRIN BEER KABUSHIKI KAISHA, priority 2004, dated 2005)
Like-named read-outs stand apart in the source and are kept apart here.

Key:
TGFβ signal = TGFβ signal inhibitory activity, (SBE)4-Luc reporter in A549 cells (Test Examples 1A and 1B); type: cell-based, human; settings: Homo sapiens, A549, read-out: TGFβ inhibition rate, %
Procedure, shortened: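 Compounds at 3 µM and 10 µM (some 1 µM) were added with 2 ng/ml TGFβ-1 to A549 cells stably expressing an SBE-driven luciferase, then cultured 4 hr. Chemiluminescent luciferase signal gave % inhibition versus TGFβ-alone and no-TGFβ controls.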

[1] = test system: rat unilateral ureteral obstruction (UUO) model; experiment: Anti-fibrotic activity, rat unilateral ureteral obstruction (UUO) model (Test Example 5); type: in vivo, SD rats; settings: UUO treatment, left kidney, corrected by total protein of kidney extract, average of 6 rats ± standard deviation
Protocol: The anti-fibrotic activity of the compounds described in the present specification was evaluated using a rat unilateral ureteral obstruction (UUO) model which is a renal fibrosis model. Compound 50 and compound 159 were used as the test compound. Six week-old male SD rats (available from Charles River Japan, Inc.) were purchased and were pre-raised before use in experiments. Regarding diets and drinking water, pellets CE-2 (available from CLEA JAPAN INC.) and sterile tap water were freely fed. The rats underwent laparotomy under pentobarbital anesthesia, and the left renal urinary duct was ligated. Thereafter, the […] underwent suturing operation and were divided into a vehicle administration group (n = 6) and a test compound administration group (n = 6) using the weight as an index. The test compound was mixed in amounts of 0.03% and 0.1% in powder diet CE-2 (available from CLEA JAPAN INC.), and the mixtures were fed as a diet to each rat group from the first day of the ureteral obstruction.
After administration of the mixed feed for 7 days, the left kidney was removed, and the hydroxyproline content as an index of organ fibrosis was measured by the following method. Specifically, renal pieces were first placed in 6 N HCl, were homogenized, and were then heated on a heat block at 130°C for 3 hr to hydrolyze protein. Thereafter, the suspension of renal pieces was neutralized by the addition of an appropriate amount of 4 N NaOH. The neutralized suspension was centrifuged (1000 rpm, 5 min, room temperature) to obtain the supernatant as a kidney extract. A chloramine T liquid, a perchloric acid solution (a solution prepared by adding distilled water to 31.5 ml of 60% perchloric acid to adjust the total volume to 100 ml), and a p-dimethylaminobenzaldehyde solution (a solution prepared by adding […] to 20 g of p-dimethylaminobenzaldehyde to adjust the total volume to 100 ml) were added to the kidney extract, and a reaction was allowed to proceed at 60°C for 20 min. The absorbance at 557 nm was then measured. The content of hydroxyproline was determined from the measured data based on a calibration curve for hydroxyproline prepared using control. Further, the content of hydroxyproline thus determined was corrected according to the total protein content of the kidney extract.
The values in the tables are average of data on 6 rats for each group ± standard deviation.

[2] = test system: mouse unilateral ureteral obstruction (UUO) model; experiment: Anti-fibrotic activity, mouse UUO model, mixed feed for 10 days (Test Example 3); type: in vivo; settings: UUO treatment, kidney, average of five mice ± standard deviation
Protocol: The anti-fibrotic activity of the compounds related to the present invention was evaluated using a mouse unilateral ureteral obstruction (UUO) model which is a renal fibrosis model. Compound r384 produced in the working example was used as the test compound. Seven week-old male BALB/c mice (available from Charles River Japan, Inc.) were purchased and were pre-raised before use in experiments. Regarding diets and drinking water, pellets CE-2 (available from CLEA JAPAN INC.) and sterile tap water were freely fed. The mice underwent laparotomy under pentobarbital anesthesia, and the left renal urinary duct was ligated. […] After administration for 4 days, the mouse left kidney was removed, and the hydroxyproline content as an index of organ fibrosis was measured by the following method. […] The absorbance at 557 nm was then measured. The content of hydroxyproline was determined from the measured data based on a calibration curve for hydroxyproline prepared using control. Further, the content of hydroxyproline thus determined was corrected according to the weight of the homogenized kidney. The anti-fibrotic activity of a compound related to the present invention was evaluated using the same model as used in Test Example 2. […]

BMP4 signal = experiment: BMP signal inhibitory activity, p(GCCG)12-Luc reporter in HepG2 cells (Test Example 7); type: cell-based, human; settings: for Selectivity for BMP (times): Inhibitory activity against BMP4 signal (IC50)/Inhibitory activity against TGFβ signal (IC50), HepG2 reporter cells, BMP4 20 ng/ml, TGFβ-1 2 ng/ml, 4 hr; for inhibitory activity against BMP4 signals: as compared with Example 274 described in WO 03/00660
Description: The inhibitory activity of the compounds according to the present invention against BMP signals was studied using a cell line through which TGFb and BMP signals can be simultaneously observed. Specifically, the cell lines capable of detecting the two signal was generated by transfecting reporter plasmids for detection of TGFb and BMP signals into a human hepatocarcinoma cell line HepG2(available from ATCC) and was used as evaluation cells. For detection of TGF-beta signal, the plasmid having four tandem binding sequences of Smad2/3, TGF-beta signal transducers, to the upstream of a luciferases gene were used as a reporter plasmid (p(SBE)4-Luc/hygro). For detection of BMP signal, the plasmid having twelve tandem binding sequences of Smadl/5/8, BMP signal transducers, to the upstream of a luciferases gene were used as a reporter plasmid (p(GCCG)12-Luc/neo), according to the method described in Mol Biol Cell. 2000 11(2): 555-65. The test compound and TGFβ-1 (2 ng/ml) or BMP4 (20 ng/ml) were added to the cells, and the mixture was cultured for 4 hr. The compounds according to the present invention synthesized in the working example were used as the test compound. […] After the culture, the luciferase activity of the cells was measured by chemiluminescence (Steady Glo (trademark) luciferase assay system, available from Promega). Likewise, the luciferase activity was measured as control for the culture of cells with only TGFβ or BMP4 added thereto and the culture of cells with the addition of none of TGFβ, BMP4 and the test compound. The inhibitory activity IC50 of the compounds against TGFβ and BMP4 was calculated based on the results of measurement, and the kinase selectivity for BMP4 was determined by the following method. Kinase selectivity for BMP4 (times) = Inhibitory activity against BMP4 signal (IC50)/Inhibitory activity against TGFβ signal (IC50)

A549 cells = experiment: Cell growth inhibitory activity using A549 cells (Test Example 6); type: cell-based, Human; settings: for inhibition at 30 µM: Homo sapiens, A549, compound 30 µM, 5% serum, 40 hr, counting kit-8, read-out: Cell growth inhibition rate (%); for inhibitory activity against cell growth of A549 cells: as compared with Example 274 described in WO 03/00660
Protocol: Human lung cancer epithelial cells (A549) (available from ATCC) were suspended to a concentration of 3 × 10^4/ml in a DMEM/F12 medium containing 10%FCS, and the suspension was inoculated in 100 µl portions in wells of a 96-well plate. On the following day, a stock solution of the test compound which had been adjusted to 10 mM with DMSO was adjusted with a serum-free DMEM/F12 medium to a dose (60 µM) which was twice the evaluation concentration. After removing the medium inoculated in the 96 wells on the previous day, the solution was added in 50 µl portions to the plate. Next, a DMEM/F12 medium containing 10% serum was added in 50 µl portions to the wells, followed by culturing at 37°C for 40 hr. The final concentration of the serum and the concentration of the evaluation compound were 5% and 30 µM, respectively. The compounds according to the present invention synthesized in the working example were used as the test compound. […]
After 40 hr, the culture was removed, and 100 µl of a solution prepared by diluting counting kit-8 (purchased from Dojindo) with a serum-free F12 medium by 10 times was added, followed by culturing at 37°C for 20 to 30 min. After the confirmation of suitable color development, the absorbance at 450 nm was measured with ARVO (purchased from Wallach Bethold Japan). The cell growth inhibition in the test compound added wells were determined by presuming the absorbance value in the test compound-free wells to be 0% and the absorbance value in the cell-free wells to be 100%.

[3] = test compound 3 µM, TGFβ-1 2 ng/ml, 4 hr, Table 1A
[4] = test compound 10 µM, TGFβ-1 2 ng/ml, 4 hr, Table 1A

## CCc1ccc(Oc2ccnc3cc(OC)c(OC)cc23)c(-c2ncccn2)n1 [Compound 50, 4-(6-Ethyl-2-pyrimidin-2-yl-pyridin-3-yloxy)-6,7-dimethoxy-quinoline]
TGFβ signal; [3]
  inhibition at 3 µM: 98%
TGFβ signal; [4]
  inhibition at 10 µM: 100%
[1]; 0.03% mixed feed for 7 days, Table 5a
  Hydroxyproline content: 7.33 ± 0.67 mg/g
[1]; 0.1% mixed feed for 7 days, Table 5a
  Hydroxyproline content: 4.67 ± 0.22 mg/g

## COc1cc2c(Oc3cc(C)c(C)cc3C(C)=O)ccnc2cc1OCCCN1CCOCC1.Cl [Compound r320, 1-{2-[6-Methoxy-7-(3-morpholin-4-yl-propoxy)-quinolin-4-yloxy]-4,5-dimethyl-phenyl}-ethanone hydrochloride]
TGFβ signal; 3 µM, compounds of Reference Examples (Test Example 1B)
  inhibition at 3 µM: 100%
TGFβ signal; 10 µM, compounds of Reference Examples (Test Example 1B)
  inhibition at 10 µM: 100%
[2]; 0.1% mixed feed for 10 days
  Hydroxyproline content (mg/g protein): 9.44 ± 0.53 mg/g protein
[2]; 0.3% mixed feed for 10 days
  Hydroxyproline content (mg/g protein): 9.19 ± 0.38 mg/g protein

## CCc1ccc(Oc2ccnc3ccc(O)cc23)c(-c2ccccn2)n1 [Compound 184, 4-(6-Ethyl-[2,2']bipyridinyl-3-yloxy)-quinolin-6-ol]
TGFβ signal; [3]
  inhibition at 3 µM: 100%
TGFβ signal; [4]
  inhibition at 10 µM: 100%
BMP4 signal
  Selectivity for BMP (times): > 428 times
A549 cells
  inhibition at 30 µM: 8%
A549 cells; as compared with Example 261 or Example 269 described in WO 03/00660, cell growth or BMP4 signals
  inhibitory activity against cell growth or BMP4 signals: reduced inhibitory activity

## Cc1ccc(Oc2ccnc3ccc(OCCO)cc23)c(-c2ncccn2)n1 [Compound 202, 2-[4-(6-Methyl-2-pyrimidin-2-yl-pyridin-3-yloxy)-quinolin-6-yloxy]-ethanol]
TGFβ signal; [3]
  inhibition at 3 µM: 86%
BMP4 signal
  Selectivity for BMP (times): 21.4 times
  inhibitory activity against BMP4 signals: reduced inhibitory activity
A549 cells
  inhibition at 30 µM: 8%
  inhibitory activity against cell growth of A549 cells: reduced inhibitory activity

## CCc1ccc(Oc2ccnc3ccc(OCCOC(C)=O)cc23)c(-c2ncccn2)n1 [Compound 206, 2-[4-(6-Ethyl-2-pyrimidin-2-yl-pyridin-3-yloxy)-quinolin-6-yloxy]-ethyl acetate]
TGFβ signal; [3]
  inhibition at 3 µM: 89%
BMP4 signal
  inhibitory activity against BMP4 signals: reduced inhibitory activity
A549 cells
  inhibition at 30 µM: -1%
  inhibitory activity against cell growth of A549 cells: reduced inhibitory activity

## Cc1ccc(Oc2ccnc3cc(C(N)=O)ccc23)c(-c2ncccn2)n1 [Compound 217, 4-(6-Methyl-2-pyrimidin-2-yl-pyridin-3-yloxy)-quinoline-7-carboxylic acid amide]
TGFβ signal; [3]
  inhibition at 3 µM: 90%
TGFβ signal; [4]
  inhibition at 10 µM: 100%
BMP4 signal
  inhibitory activity against BMP4 signals: reduced inhibitory activity
A549 cells
  inhibition at 30 µM: 4%
  inhibitory activity against cell growth of A549 cells: reduced inhibitory activity

## CCc1ccc(Oc2ccnc3cc(OC)c(F)cc23)c(-c2ncccn2)n1 [Compound 159, 4-(6-Ethyl-2-pyrimidin-2-yl-pyridin-3-yloxy)-6-fluoro-7-methoxy-quinoline]
TGFβ signal; [3]
  inhibition at 3 µM: 99%
TGFβ signal; [4]
  inhibition at 10 µM: 100%
[1]; 0.03% mixed feed for 7 days, Table 5b
  Hydroxyproline content: 22.47 ± 0.82 mg/g
[1]; 0.1% mixed feed for 7 days, Table 5b
  Hydroxyproline content: 17.28 ± 0.87 mg/g

## Cc1ccc(Oc2ccnc3ccc(OCCCO)cc23)c(-c2ncccn2)n1 [Compound 222, 3-[4-(6-Methyl-2-pyrimidin-2-yl-pyridin-3-yloxy)-quinolin-6-yloxy]-propan-1-ol]
TGFβ signal; [3]
  inhibition at 3 µM: 91%
TGFβ signal; [4]
  inhibition at 10 µM: 100%
BMP4 signal
  inhibitory activity against BMP4 signals: reduced inhibitory activity
A549 cells
  inhibition at 30 µM: 6%
  inhibitory activity against cell growth of A549 cells: reduced inhibitory activity
